In patent publication US11492348B2, “Tri-substituted aryl and heteroaryl derivatives as modulators of PI3-kinase and autophagy pathways” (Neuropore Therapies, Inc., priority 2018, dated 2022):
pIC50: −log10 of the molar value. Counter-ions that a name gives are not always drawn.

Columns and labels:
[1] = test system: (Ser-473) pAKT in B103 (Rat Neuroblastoma) cells; experiment: pAKT protocol: loss of (Ser-473) pAKT by AlphaScreen in insulin-stimulated B103 cells; format: cell-based; details: (Ser-473) pAKT/total AKT IC50, 2-hour pretreatment, 2.5 μg/mL insulin 20 minutes
Method: Inhibition of the PI3K-AKT-mTOR pathway was measured by quantifying the loss of (Ser-473) pAKT using AlphaScreen (Perkin Elmer). B103 (Rat Neuroblastoma) cells were seeded in serum containing medium (High Glucose DMEM (-Phenol Red)+10% FBS+2× Glutamax+1 mM Sodium Pyruvate+10 mM HEPES+1× Non-Essential Amino Acids+1× Pen/Strep) on a 96-well tissue culture treated plate and grown for 20 hours. Cells were then serum starved in serum free medium (High Glucose DMEM (-Phenol Red)+1× Glutamax+1 mM Sodium Pyruvate+1× Pen/Strep) for 6 hours prior to a 2-hour pretreatment with inhibitors of the pathway, including reference inhibitor LY294002. These inhibitors were prepared at a 200× final concentration as a 6-point, 1:3 serial dilution in DMSO series, with DMSO as the 7th point. The inhibitors were then diluted in experimental medium (High Glucose DMEM (-Phenol Red)+1× Glutamax+1 mM Sodium Pyruvate+1× Pen/Strep+25 mM HEPES+0.1% BSA) and combined with the cells at 1× final concentration in 0.5% DMSO. […] Cells were promptly lysed using Perkin Elmer proprietary lysis buffer and the (Ser-473) pAKT and total AKT contained in the lysate was measured by AlphaScreen. In AlphaScreen, donor beads were coated with streptavidin to capture one of the antibodies, which is biotinylated. Acceptor beads were coated with Protein A to immobilize the other antibody. In the presence of target protein, the two antibodies bring the donor and acceptor beads close together, generating signal. The amount of light emission is directly proportional to the amount of target protein present in the sample. For each inhibitor tested: the ratio of measured (Ser-473) pAKT/totalAKT was plotted in GraphPad Prism as a 7-point, non-linear regression, 4-parameter curve with bottom constrained to reference control bottom and unconstrained top anchored to DMSO.

PI3Kα = PI3Kα (Homo sapiens (Human), UniProt P42336); experiment: Inhibition of PI3Kα (ADP-Glo kinase activity assay, ATP to ADP conversion); format: biochemical; details: 25 μM PIP2:PS, 60 μM ATP, 30 min reaction, luminescence
Method: Quantification of ATP to ADP conversion as a measure of PI3Kα activity. Active PI3Kα (Life Technologies), in the presence or absence of PI3Kα inhibitor, was reacted with PIP2:PS (Life Technologies), a substrate specifically optimized for use with Class I PI3 kinases, and ultrapure ATP (Promega). The conversion of ATP to ADP by PI3Kα was measured as luminescence signal via Promega ADP-Glo kinase activity assay. Assay was validated using published PI3Kα inhibitors LY294002, PI-103, BYL719, GDC0198 and also DMSO vehicle control.
Compounds were prepared at 100× final concentration as a 12-point, 1:3 serial-dilution in DMSO series, with DMSO control as 12th point. Compound was then diluted in (25 mM HEPES pH 7.5, 1 mM EGTA, 0.3% CHAPS) prior to addition to PI3Kα. Active PI3Kα diluted to 0.24 ng/μL (1.1 nM) in (50 mM HEPES pH 7.5, 6 mM MgCl2, 1 mM EGTA, 200 mM NaCl, 0.03% CHAPS, 8 mM DTT) was incubated with compound for 0 hr and 3 hr prior to the start of the reaction. 25 μM PIP2:PS and 60 μM ATP were diluted from stock in (25 mM HEPES pH 7.5, 1 mM EGTA, 0.3% CHAPS) and added to initiate the PI3Kα reaction. Reaction time was 30 minutes. ATP to ADP conversion was measured in Luminescence Counts on DTX880 Plate Reader (Beckman Coulter). Compound IC50s were reported using GraphPad Prism software. Analytical method was non-linear regression, 4-parameter curve fit with bottom fit to validated PI3Kα inhibitor reference controls and no top fit (floating top).

PI3Kα, sequence (P42336 whole entry): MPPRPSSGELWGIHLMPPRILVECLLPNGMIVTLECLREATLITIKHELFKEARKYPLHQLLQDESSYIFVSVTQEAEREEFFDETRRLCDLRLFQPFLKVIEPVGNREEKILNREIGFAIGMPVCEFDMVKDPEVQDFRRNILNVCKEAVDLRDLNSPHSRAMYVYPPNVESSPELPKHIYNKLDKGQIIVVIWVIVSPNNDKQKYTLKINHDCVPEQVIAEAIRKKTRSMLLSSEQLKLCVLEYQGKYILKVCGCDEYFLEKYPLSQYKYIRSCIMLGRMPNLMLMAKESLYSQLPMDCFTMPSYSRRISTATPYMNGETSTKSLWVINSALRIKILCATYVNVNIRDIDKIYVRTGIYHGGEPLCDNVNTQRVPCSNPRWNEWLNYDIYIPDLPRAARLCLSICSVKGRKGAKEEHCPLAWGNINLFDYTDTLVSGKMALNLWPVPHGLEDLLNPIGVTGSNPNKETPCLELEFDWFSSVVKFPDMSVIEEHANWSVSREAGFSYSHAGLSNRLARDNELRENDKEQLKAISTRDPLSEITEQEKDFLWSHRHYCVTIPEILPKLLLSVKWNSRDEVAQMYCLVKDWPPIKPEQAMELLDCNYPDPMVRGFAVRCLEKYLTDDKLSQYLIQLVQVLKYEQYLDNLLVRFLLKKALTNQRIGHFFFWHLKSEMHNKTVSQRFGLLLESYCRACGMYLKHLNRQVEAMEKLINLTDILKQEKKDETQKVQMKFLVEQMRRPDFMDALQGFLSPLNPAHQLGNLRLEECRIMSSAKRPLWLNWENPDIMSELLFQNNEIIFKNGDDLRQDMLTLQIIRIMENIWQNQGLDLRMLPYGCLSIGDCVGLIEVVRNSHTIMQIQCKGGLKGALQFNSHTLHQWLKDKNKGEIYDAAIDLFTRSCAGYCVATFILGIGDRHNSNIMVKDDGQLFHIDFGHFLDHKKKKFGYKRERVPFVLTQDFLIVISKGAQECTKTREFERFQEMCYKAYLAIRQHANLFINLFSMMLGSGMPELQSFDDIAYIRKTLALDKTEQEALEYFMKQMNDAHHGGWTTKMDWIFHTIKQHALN
PI3Kα, sequence (P27986 whole entry partner): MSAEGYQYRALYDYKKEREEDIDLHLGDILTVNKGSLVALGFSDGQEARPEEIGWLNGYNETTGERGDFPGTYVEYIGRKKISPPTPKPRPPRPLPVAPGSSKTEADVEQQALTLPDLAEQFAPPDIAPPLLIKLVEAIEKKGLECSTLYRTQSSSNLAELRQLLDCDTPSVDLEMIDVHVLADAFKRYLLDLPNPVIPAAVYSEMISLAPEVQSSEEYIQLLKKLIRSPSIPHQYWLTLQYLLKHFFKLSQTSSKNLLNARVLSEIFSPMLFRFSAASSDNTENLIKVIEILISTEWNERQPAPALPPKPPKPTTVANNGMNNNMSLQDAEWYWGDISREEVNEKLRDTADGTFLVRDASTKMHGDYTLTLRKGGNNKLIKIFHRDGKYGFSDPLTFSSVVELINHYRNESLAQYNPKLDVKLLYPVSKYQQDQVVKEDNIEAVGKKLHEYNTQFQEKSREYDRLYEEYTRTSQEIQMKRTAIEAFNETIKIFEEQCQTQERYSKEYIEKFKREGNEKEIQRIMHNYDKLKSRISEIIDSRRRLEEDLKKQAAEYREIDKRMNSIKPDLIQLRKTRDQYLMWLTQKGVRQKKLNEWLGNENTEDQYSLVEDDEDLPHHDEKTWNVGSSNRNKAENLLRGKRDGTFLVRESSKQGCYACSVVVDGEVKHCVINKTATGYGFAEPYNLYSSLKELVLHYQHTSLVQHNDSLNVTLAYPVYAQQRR

Structure (SMILES)	pIC50 [1]	PI3Ka IC50 (PI3Kα) [µM]
Nc1ncc(-c2cc(N3CCOCC3)cc(S(=O)(=O)C3CCOC3)c2)c(C(F)(F)F)n1 (stereo not drawn) [Compound 72, 5-(3-morpholino-5-((tetrahydrofuran-3-yl)sulfonyl)phenyl)-4-(trifluoromethyl)pyrimidin-2-amine]	5.04	0.46
CC(C)C(=O)N1CC(S(=O)(=O)c2cc(-c3cnc(N)nc3)cc(N3CCOCC3)c2)C1 [Compound 76, 1-(3-((3-(2-aminopyrimidin-5-yl)-5-morpholinophenyl)sulfonyl)azetidin-1-yl)-2-methylpropan-1-one]	5.25	0.30
CC(=O)N1CCC(S(=O)(=O)c2cc(-c3cnc(N)nc3)cc(N3CCOCC3)c2)CC1 [Compound 83, 1-(4-((3-(2-aminopyrimidin-5-yl)-5-morpholinophenyl)sulfonyl)piperidin-1-yl)ethan-1-one]	5.07	0.34
Nc1ncc(-c2cc(N3CCOCC3)cc(S(=O)(=O)c3ccc4ccoc4c3)c2)cn1 [Compound 112, 5-(3-(benzofuran-6-ylsulfonyl)-5-morpholinophenyl)pyrimidin-2-amine]	4.65	2.3
Nc1ncc(-c2cc(N3CCOCC3)cc(S(=O)(=O)c3ccc4c(c3)OCC4)c2)cn1 [Compound 116, 5-(3-((2,3-dihydrobenzofuran-6-yl)sulfonyl)-5-morpholinophenyl)pyrimidin-2-amine]	4.64	2.3
Nc1ncc(-c2cc(N3CCOCC3)cc(S(=O)(=O)[C@@H]3CCOC3)c2)cc1C(F)(F)F [Compound 100, (R)-5-(3-morpholino-5-((tetrahydrofuran-3-yl)sulfonyl)phenyl)-3-(trifluoromethyl)pyridin-2-amine]	4.32	1.6
Nc1ncc(-c2cc(N3CCOCC3)cc(S(=O)(=O)C3CN(C(=O)c4ccc(F)cc4)C3)c2)cn1 [Compound 79, (3-((3-(2-aminopyrimidin-5-yl)-5-morpholinophenyl)sulfonyl)azetidin-1-yl)(4-fluorophenyl)methanone]	5.30	0.21
Nc1ncc(-c2cc(N3CCOCC3)cc(S(=O)(=O)Cc3ccc4[nH]cnc4c3)c2)cn1 [Compound 63, 5-(3-(((1H-benzo[d]imidazol-5-yl)methyl)sulfonyl)-5-morpholinophenyl)pyrimidin-2-amine]	5.43	0.47
Nc1ncc(-c2cc(N3CCOCC3)nc(S(=O)(=O)c3ccccc3)c2)cn1 [Compound 118, 5-(2-morpholino-6-(phenylsulfonyl)pyridin-4-yl)pyrimidin-2-amine]	4.86	0.88
Nc1ncc(-c2cc(N3CCOCC3)cc(S(=O)(=O)Cc3ccc(N4CCOCC4)cc3)c2)cn1 [Compound 58, 5-(3-morpholino-5-((4-morpholinobenzyl)sulfonyl)phenyl) pyrimidin-2-amine]	4.38	–
Nc1ncc(-c2cc(S(=O)(=O)c3ccccc3Cl)cc(N3CCOCC3)n2)cn1 [Compound 139, 5-(4-((2-chlorophenyl)sulfonyl)-6-morpholinopyridin-2-yl)pyrimidin-2-amine]	7.80	0.017
Nc1ncc(-c2cc(N3CCOCC3)cc(S(=O)(=O)C3CCCCC3)c2)cn1 [Compound 49, 5-(3-(cyclohexylsulfonyl)-5-morpholinophenyl)pyrimidin-2-amine]	4.51	0.49
Nc1ncc(-c2cc(N3CCOCC3)cc(S(=O)(=O)CCc3ccc(F)cc3)c2)cn1 [Compound 82, 5-(3-((4-fluorophenethyl)sulfonyl)-5-morpholinophenyl)pyrimidin-2-amine]	4.97	0.29
Nc1ccc(-c2cc(N3CCOCC3)cc(S(=O)(=O)[C@@H]3CCOC3)c2)cn1 [Compound 101, (R)-5-(3-morpholino-5-((tetrahydrofuran-3-yl)sulfonyl)phenyl)pyridin-2-amine]	5.07	0.88
NCCNc1ncc(-c2cc(N3CCOCC3)cc(S(=O)(=O)Cc3ccc(F)cc3)c2)cn1 [47 (as a HCl salt), N1-(5-(3-((4-fluorobenzyl)sulfonyl)-5-morpholinophenyl)pyrimidin-2-yl)ethane-1,2-diamine]	5.66	1.2
Nc1ncc(-c2cc(S(=O)(=O)C3CCOCC3)cc(N3CCOCC3)n2)cn1 [Compound 148, 5-(6-morpholino-4-((tetrahydro-2H-pyran-4-yl)sulfonyl)pyridin-2-yl)pyrimidin-2-amine]	–	0.0130
Nc1ncc(-c2cc(S(=O)(=O)[C@@H]3CCOC3)cc(N3CCOCC3)n2)cn1 [Compound 142b, (R)-5-(6-morpholino-4-((tetrahydrofuran-3-yl)sulfonyl)pyridin-2-yl)pyrimidin-2-amine]	–	0.0068
O=S(=O)(Cc1ccc(F)cc1)c1cc(-c2cccc(OC(F)(F)F)c2)cc(N2CCOCC2)c1 [Compound 46, 4-(5-((4-fluorobenzyl)sulfonyl)-3′-(trifluoromethoxy)-[1,1′-biphenyl]-3-yl)morpholine]	–	19
Nc1ncc(-c2cc(N3CCCCC3)cc(S(=O)(=O)c3ccccc3)c2)cn1 [Compound 25, 5-(3-(phenylsulfonyl)-5-(piperidin-1-yl)phenyl)pyrimidin-2-amine]	–	30
CC(C)(O)CNc1ccc(S(=O)(=O)c2cc(-c3cnc(N)nc3)cc(N3CCOCC3)c2)cc1 [Compound 37, 1-((4-((3-(2-aminopyrimidin-5-yl)-5-morpholinophenyl)sulfonyl)phenyl)amino)-2-methylpropan-2-ol]	–	2.0
Nc1ncc(-c2cc(S(=O)(=O)C3COc4ccccc43)cc(N3CCOCC3)n2)cn1 (stereo not drawn) [Compound 147, 5-(4-((2,3-dihydrobenzofuran-3-yl)sulfonyl)-6-morpholinopyridin-2-yl)pyrimidin-2-amine]	–	0.0070
Nc1ncc(-c2cc(C3CCOc4ccccc43)cc(N3CCOCC3)n2)cn1 (stereo not drawn) [Compound 141, 5-(4-(chroman-4-yl)-6-morpholinopyridin-2-yl)pyrimidin-2-amine]	–	0.062
COc1ccc(-c2cc(N3CCOCC3)cc(S(=O)(=O)c3ccccc3)c2)cn1 [Compound 5, 4-(3-(6-methoxypyridin-3-yl)-5-(phenylsulfonyl)phenyl)morpholine]	–	12
COc1ccc(-c2cc(N3CCOCC3)cc(S(=O)(=O)Cc3ccc(F)cc3)c2)cc1N [Compound 43, 3′-((4-fluorobenzyl)sulfonyl)-4-methoxy-5′-morpholino-[1,1′-biphenyl]-3-amine]	–	11
COc1ncc(-c2cc(N3CCOCC3)cc(S(=O)(=O)c3ccccc3)c2)cn1 [Compound 2, 4-(3-(2-methoxypyrimidin-5-yl)-5-(phenylsulfonyl)phenyl)morpholine]	–	5.0
